Measured values published in US11174233B1, “Anti-cancer compounds having oxazolone derivation” (King Abdulaziz University, priority 2019, dated 2021).
Where two headings read alike, the source gives them in different places.

Columns and labels:
[1] = tested on: PC3 (prostate) cancer cells; experiment: SRB cytotoxicity assay against PC3; assay type: cell-based, human; settings: Homo sapiens, 72 h treatment
Description: (§1) MCF-7 (breast) and PC3 (prostate) cancer cells were each grown in RPMI-1640 medium supplemented with 10% heat inactivated FBS, 50 units/mL of penicillin, and […] of streptomycin. The cultures were maintained at 37° C. in a humidified atmosphere containing 5% CO2. The cells were maintained as “monolayer culture” by serial sub-culturing.
(§2) Cytotoxicity was determined using SRB method as previously described by Skehan et al. [Skehan P.; Storeng R.; Scudiero D.; Monks A.; McMahon J.; al., V. D. e., New colorimetric cytotoxicity assay for anticancer drug screening. […] Exponentially growing cells were collected using 0.25% Trypsin-EDTA and seeded in 96-well plates at 1000-2000 cells/well in RPMI-1640 supplemented medium. After 24 h, cells were incubated for 72 h with various concentrations of the tested compounds. Following 72 h treatment, the cells would be fixed with 10% trichloroacetic acid for 1 h at 4° C. Wells were stained for 10 min at room temperature with 0.4% SRB dissolved in 1% acetic acid. The plates were air dried for 24 h and the dye was solubilized with Tris-HCl for 5 min on a shaker at 1600 rpm. The optical density (OD) of each well was measured spectrophotometrically at 564 nm with an ELISA microplate reader (ChroMate-4300, FL, USA). The IC50 values were calculated according to the equation for Boltzman sigmoidal concentration—response curve using the nonlinear regression fitting models (Graph Pad, Prism Version 5).

[2] = tested on: MCF-7 (breast) cancer cells; experiment: SRB cytotoxicity assay against MCF7; assay type: cell-based, human; settings: Homo sapiens, 72 h treatment
Description: as §1, §2

[3] = tested on: HL-60 leukemia cells; experiment: CellTiter-Blue cell viability assay on HL-60; assay type: cell-based; settings: Homo sapiens, HL-60 cells, 48 h
Description: (§3) HL-60 were purchased from CLS Cell Line Service GmbH (Eppelheim, Germany) and cultured in Roswell Park Memorial Institute-1640 medium (RPMI-1640; Thermo Fisher Scientific, Inc; Waltham, Mass., USA) supplemented with 10% fetal bovine serum (FBS; Thermo Fisher Scientific) and ciprofloxacin (10 μg/mL; Cipla Limited; Mumbai, India), at 37° C. with 5% CO2 in a humidified incubator.
The CellTiter®-Blue Cell Viability assay was acquired from Promega Corporation (Madison, Wis., USA). Cell viability assay was performed as follows. The cells (10^4/well) were incubated with a concentration gradient of KIM-161C and KIM-241C ranging from 0.01 to 100 in 96-well plates for 48 h at 37° C. Subsequently, 20 μL CellTiter®-Blue Cell Viability reagent was added to each well and incubated for an additional 2 h for the development of fluorescence. The fluorescence emission was measured at 590 nm using the SpectraMax® i3× Multi-Mode microplate reader (Molecular Devices, LLC; San Jose, Calif., USA.) and plotted against drug concentrations to determine the mean inhibitory concentration of KIM-161C and KIM-241C producing 50% decrease in cell viability (IC50).

[4] = tested on: HL-60 leukemia cells; experiment: Apoptosis detection by caspase 3 activity in HL-60 cells; assay type: cell-based, human
Description: as §3
The caspase family of cysteine proteases are important regulators in the apoptosis. Caspase 3 belongs to the effector (caspase 3, 6 and 7) class of proteases and it is a key protease that is activated during early stages of apoptosis. […] The activated caspase 3 is a marker for cell apoptosis that proteolytically cleaves and activates other caspases and intracellular targets [Patel, T.; Gores, G. J.; Kaufmann, S. H., The role of proteases during apoptosis. FASEB journal: official publication of the Federation of American Societies for Experimental Biology 1996, 10 (5), 587-97].
FITC conjugated active caspase-3 antibody (BD biosciences, USA) was used to detect the active form of caspase 3 in the cells undergoing apoptosis. […] The collected cells were washed twice in cold 1×PBS and then re-suspended in a 0.5 mL BD Cytofix/Cytoperm solution followed by 20 min incubation on ice. After incubation, cells were washed twice in a BD Perm/Wash buffer (1×) and then labelled with 5 μL of FITC rabbit anti-caspase 3 antibodies. The labelled cells were washed again with wash buffer and re-suspended in a 0.5 mL buffer and analyzed by acquiring a minimum of 5000 events on the FACS Aria III cell analyzer and sorter.

[5] = tested on: HL-60 leukemia cells; experiment: Cell cycle analysis of Hoechst 33342 stained HL-60 cells by flow cytometry; assay type: cell-based, human; settings: 48 h
Description: as §3
The cells (3.5×10^5) were incubated with two different concentrations of KIM-161C at 37° C. for 48 h. Subsequently, the cells were collected and washed twice with ice-cold PBS (1×). The washed cells were fixed on ice for 20 min using a fixation buffer containing paraformaldehyde. Hoechst 33342 (10 μg/mL; Thermo Fisher Scientific, Inc.) was used for staining. The cells were then incubated in the dark for 30 min on ice. A minimum total of 20,000 events were acquired using a BD FACSAria III flow cytometer. Flowlogic version 7.2.1 software (Inivai Technologies, Victoria, Australia) was used to obtain the percentages of cells in the G1, S, and G2/M phases in the singlet-gated population.

Compound | IC50 [1] [nM] | melting point [°C] | IC50 [2] [nM] | IC50 ([3]; read-out: IC50 value, HL-60 cell viability (could not be obtained even at this concentration)) [nM] | increase in the cells undergoing apoptosis as compared to the basal apoptosis ([4]; 362.5 nM, 24 h) | increase in the cells undergoing apoptosis as compared to the basal apoptosis ([4]; 362.5 nM, 48 h) | increase in the cells undergoing apoptosis as compared to the basal apoptosis ([4]; 725 nM, 24 h) | increase in the cells undergoing apoptosis as compared to the basal apoptosis ([4]; 725 nM, 48 h) [fold] | cells in the G1 phase ([5]; 362.5 nM) | increase in the cells in G2/M stage as compared to the control ([5]; 725 nM) [fold] | IC50 ([3]; read-out: IC50 value, HL-60 cell viability) [nM]
O=C(Cc1ccc(N2C(=O)/C(=C/c3ccco3)N=C2c2ccccc2)cc1)NCc1ccccc1 [KIM-241C, (Z)—N-benzyl-2-(4-(4-(furan-2-ylmethylene)-5-oxo-2-phenyl-4,5-dihydro-1H-imidazol-1-yl)phenyl)acetamide] | 243 | 199 to 200 | 145 | > 20000 | – | – | – | – | – | – | –
COc1ccc(/C=C2\N=C(C)N(c3ccc(CC(=O)NCc4ccccc4)cc3)C2=O)cc1 [KIM-161C, (Z)—N-benzyl-2-(4-(4-(4-methoxybenzylidene)-2-methyl-5-oxo-4,5-dihydro-1H-imidazol-1-yl)phenyl)acetamide] | – | – | 3500 | – | more than 2 fold | more than 2 fold | more than 9.5 fold | > 8.45 | increase | 3 | 262
